From patent publication US20220265176A1, “A NOVEL, ORGAN-ON-A-CHIP DEVICE FOR ASSESSING TRANS-EPITHELIAL TRANSPORT, AND USES THEREOF” (The Johns Hopkins University, priority 2019, published 2022)

What was measured:
WTc cells = assay: MFKP pump performance curve, wild type cortex (WTc) primary kidney cells; type: cell-based, human
Excerpt: (§1) A micro-fluidic device to measure transepithelial fluid absorption activities of the kidney epithelium while allowing for cell imaging andvsimultaneous control of fluid pressure, shear stress (FSS), and media chemical composition is described herein (see FIG. 2A-2F). The device measures fluidic flux across the epithelium as a function of apical and basal pressures using a microcapillary (MC) connected to port 2 or 3 (FIG. 2C). The MC measures both the trans-epithelial fluid flux and the hydraulic pressure (FIG. 2C, 2F). […] Calibration experiments are performed to obtain capillary action contribution from the MC to the basal pressure and the static pressure profiles of each device for the shear flow condition considered.
(§2) Next, it was considered whether the device is useful for understanding fluidic pumping by primary human normal kidney and ADPKD cystic cells. […] The barrier function of the epithelia was again assessed using dye permeation assay (FIG. 15A-15I).
(§3) Port 1 is closed. (4B) Schematic of the setup, which allows measurement of trans-epithelial fluid flux from the basal to apical chamber. (4C) Schematic representation of a cystic kidney derived from ADPKD patients. (4D) Schematic representation of a kidney derived from normal human patients. (4E) The MC is connected to port 3 in the MFKP. Port 1 is closed. (4F) This setup enables measurement of trans-epithelial fluid flux from apical to basal chamber.

cysts = details: mouse models of ADPKD; AVP treatment; reference [15]; cited from earlier work
ADPKD cystic cells = assay: MFKP pump performance curve, ADPKD cystic cells; type: cell-based, human
Excerpt: as §1, §2
Port 1 is closed. (4B) Schematic of the setup, which allows measurement of trans-epithelial fluid flux from the basal to apical chamber. (4C) Schematic representation of a cystic kidney derived from ADPKD patients.

WTm cells = assay: MFKP pump performance curve, wild type medulla (WTm) primary kidney cells; type: cell-based, human
Excerpt: as §1, §2, §3

MDCK-II epithelium = assay: Micro-fluidic Kidney Pump (MFKP) pump performance curve, MDCK-II epithelium; type: cell-based
Excerpt: as §1

ADPKD kidney = details: reference [16]; cited from earlier work
V2R = V2R (Homo sapiens, UniProt P30518); details: reference [18]; cited from earlier work
[1] = mature ADPKD epithelium, 1 nM TVP on basolateral side for 1 hour, vs control

V2R, sequence (P30518 whole entry, species assumed): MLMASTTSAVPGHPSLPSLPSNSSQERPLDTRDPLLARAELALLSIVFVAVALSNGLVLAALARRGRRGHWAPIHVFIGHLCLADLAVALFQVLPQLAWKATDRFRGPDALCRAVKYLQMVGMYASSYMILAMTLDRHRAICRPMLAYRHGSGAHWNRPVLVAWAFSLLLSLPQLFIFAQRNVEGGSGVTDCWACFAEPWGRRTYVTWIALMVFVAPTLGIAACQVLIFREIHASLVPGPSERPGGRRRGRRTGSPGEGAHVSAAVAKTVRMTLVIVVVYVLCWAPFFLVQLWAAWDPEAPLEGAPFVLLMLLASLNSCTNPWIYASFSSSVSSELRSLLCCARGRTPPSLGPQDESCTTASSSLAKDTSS

For `NC(=O)CC[C@@H]1NC(=O)[C@H](Cc2ccccc2)NC(=O)[C@H](Cc2ccc(O)cc2)NC(=O)[C@@H](N)CSSC[C@@H](C(=O)N2CCC[C@H]2C(=O)N[C@@H](CCCN=C(N)N)C(=O)NCC(N)=O)NC(=O)[C@H](CC(N)=O)NC1=O` [AVP, arginine vasopressin], the “J0 and ΔP*” value (WTc cells; basolateral treatment of AVP) is given as “variable response”, the cyst growth (cysts) is given as “grow bigger” and the “stall pressure ΔP*” value (ADPKD cystic cells; ADPKD cells, basolateral treatment of AVP) is given as −300 Pa. The basal-to-apical fluid pumping (ADPKD cystic cells; ADPKD epithelium, basolateral treatment of AVP) was “massive surge”, the “J0 and ΔP*” value (WTm cells; basolateral treatment of AVP) was “variable response” and the “pump performance curve (PPC)” value (MDCK-II epithelium; MDCK-II epithelium, chemical perturbation (addition of AVP)) was “changes substantially”.
For `C[C@@H]1O[C@@H](O[C@H]2C[C@@H](O)[C@]3(CO)[C@H]4[C@H](O)C[C@]5(C)[C@@H](C6=CC(=O)OC6)CC[C@]5(O)[C@@H]4CC[C@]3(O)C2)[C@H](O)[C@H](O)[C@H]1O` [Ouabain], the “equilibrium fluid flux (J0)” value (WTc cells; after Ouabain induced inhibition of NKA (control 4.3)) was 1.7 μL/min/cm^2, the “stall pressure ΔP*” value (WTc cells; after Ouabain induced inhibition of NKA (control 157 Pa)) was 34 Pa and the J0 (WTm cells; overnight incubation with 274 μM Ouabain (control 4.3)) was 1.0 μL/min/cm2. For the same molecule, the “ΔP*” value (WTm cells; overnight incubation with 274 μM Ouabain (control 56 Pa)) was 42 Pa.
For `Cc1ccccc1C(=O)Nc1ccc(C(=O)N2CCCC(O)c3cc(Cl)ccc32)c(C)c1` (stereo not drawn) [Tolvaptan], the total kidney volume (ADPKD kidney) is listed as “decreased”, the “J0 (fluid flux at zero pressure gradient)” value (ADPKD cystic cells; [1]) is listed as “decreased” and the “stall pressure ΔP*” value (ADPKD cystic cells; [1]) is listed as “decreased”. The cAMP levels (V2R) was “decrease”.
With `C[C@@H](N)[C@H]1CC[C@H](C(=O)Nc2ccncc2)CC1` [Y-27367] the fluid flux (MDCK-II epithelium; MDCK-II epithelium in MFKP, addition of Y-27367) was “did not influence fluid flux significantly”.
